The values below are quoted from earlier work in patent publication US20100113605A1 (priority 2007, published 2010).

The structures appear in SMILES notation. Like-named read-outs stand apart in the source and are kept apart here.

The target of series [1] is DAT (Rattus norvegicus, UniProt P23977). As to conditions: for Site of action: 'Intraneuronal' cell continues 'via DAT'; for Pharmacodynamics of effect on synaptic [DA]: [DA] = dopamine concentration, cell wraps, ends with 'increases'; for Firing dependent effect on synaptic [DA]: in vivo.
The conditions of series [2]: in vivo.
Series [3] concerns rat striatal slices. The note with it: for release of [^3H]dopamine from superfused rat striatal slices: low (10^−7M) and high (10^−5M) concentration; for Percentage increase in [^3H]dopamine release: mean ± SEM (n ≧ 4), NS = not significantly different from basal [^3H]dopamine overflow.
The test system of series [4] is extraneuronal dopamine concentrations in the nucleus accumbens.
For series [5], the system named is electrically-evoked levels of extracellular dopamine in the nucleus accumbens. As to conditions: 100 nmol icv, 1 day after injection.
Series [6] has as its system extraneuronal dopamine in the nucleus accumbens. As to conditions: d-amphetamine 0.5 mg/kg s.c.; tetrodotoxin 1×10^−6M.

DAT, sequence (P23977 whole entry): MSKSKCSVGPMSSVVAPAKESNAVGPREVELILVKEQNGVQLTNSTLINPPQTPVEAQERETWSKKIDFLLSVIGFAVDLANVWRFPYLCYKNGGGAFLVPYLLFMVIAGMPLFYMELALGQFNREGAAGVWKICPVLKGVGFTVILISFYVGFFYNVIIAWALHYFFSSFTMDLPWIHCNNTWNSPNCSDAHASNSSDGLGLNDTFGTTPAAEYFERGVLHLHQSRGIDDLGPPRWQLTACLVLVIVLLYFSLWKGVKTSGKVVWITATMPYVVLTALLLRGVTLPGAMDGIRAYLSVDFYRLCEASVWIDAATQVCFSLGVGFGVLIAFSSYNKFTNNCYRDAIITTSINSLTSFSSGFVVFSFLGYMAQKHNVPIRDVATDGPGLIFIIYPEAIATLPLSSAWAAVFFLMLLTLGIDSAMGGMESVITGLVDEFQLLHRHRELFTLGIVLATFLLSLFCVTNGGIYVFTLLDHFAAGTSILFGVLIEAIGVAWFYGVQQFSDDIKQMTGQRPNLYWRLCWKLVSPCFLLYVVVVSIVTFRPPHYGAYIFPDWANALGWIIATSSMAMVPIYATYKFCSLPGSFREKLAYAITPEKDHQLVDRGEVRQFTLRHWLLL

Regarding `CNC(C)Cc1ccc2c(c1)OCO2` (centres unmarked) [MDMA, methylenedioxymethamphetamine], in series [1], the Site of action entry is on record as “Intraneuronal”; the “Pharmacodynamics of effect on synaptic [DA]” value (shortened to “Pharmacodynamics of effect”) is recorded as “Rapid, very large”; the “Firing dependent effect on synaptic [DA]” value was “No”. Also, the Euphoriant/psychostimulant entry in series [2] is listed as “Yes”.
Consider `CC(C)CC(N(C)C)C1(c2ccc(Cl)cc2)CCC1` (centres unmarked) [Sibutramine, sibutramine], for which the “release of [^3H]dopamine from superfused rat striatal slices” value (“release of [^3H]dopamine” below) in series [3] is on record as “did not release”. The “increase in extraneuronal concentration of dopamine in the nucleus accumbens” value in series [4] (2.0 mg/kg ip, freely-moving rats) is “failed to reach statistical significance”. Also, the “time of maximum increase in extraneuronal dopamine” value in series [4] (6.0 mg/kg ip) is listed as 60 min. Also, the “maximum increase in extraneuronal concentration of dopamine in the nucleus accumbens” value in series [4] (6.0 mg/kg ip, at 60 min, freely-moving rats, P<0.001) is 231±87%. Besides, in series [1], the Site of action result is listed as “Extraneuronal”; the “Pharmacodynamics of effect” value is given as “Gradual, moderate,”; the “Firing dependent effect on synaptic [DA]” value is given as “Yes”. The Euphoriant/psychostimulant entry in series [2] is recorded as “No”.
As for `CN[C@@H](C)Cc1ccccc1` [Methamphetamine, methamphetamine], the “Percentage increase in [^3H]dopamine release” value (“Percentage increase” for short) in series [3] (10^−5M) is recorded as 140 ± 10 %. The “Percentage increase” value in series [3] (10^−7M) is 37 ± 10 %. The “release of [^3H]dopamine” value in series [3] is listed as “dose-dependently released”. In addition, in series [1], the Site of action entry is listed as “Intraneuronal”; the “Pharmacodynamics of effect” value is recorded as “Rapid, very large”; the “Firing dependent effect on synaptic [DA]” value is given as “No”. For the same compound, the Euphoriant/psychostimulant result in series [2] is reported as “Yes”.
`CN1C2CCC1C(C(=O)OCc1ccc(N=C=S)cc1)C(c1ccc(Cl)cc1)C2.Cl` (stereo not drawn) [RTI-76, 3β-(ρ-chlorophenyl)tropan-2α-carboxylic acid ρ-isothio-cyanatophenylmethyl ester hydrochloride]: the “extracellular concentration of dopamine in the nucleus accumbens, electrically evoked” value in series [5] was “increases the extracellular concentration of dopamine in the nucleus accumbens in a frequency-dependent manner”.
With `COC(=O)C(c1ccccc1)C1CCCCN1` (racemic) [Methylphenidate, dl-threo-methylphenidate], in series [3] (10^−5M), the “Percentage increase” value is listed as 24 ± 7 %. Besides, in series [3] (10^−5M, listed as methylphenidate), the “Percentage increase” value is recorded as “statistically significant increase”. Moreover, the “Percentage increase” value in series [3] (10^−7M) is reported as “no stimulation”. Also, in series [1], the Site of action result is listed as “Extraneuronal”; the “Pharmacodynamics of effect” value is reported as “Rapid, very large”; the “Firing dependent effect on synaptic [DA]” value is given as “Yes”. Further, the Euphoriant/psychostimulant entry in series [2] is “Yes”.
As to `CC(N)Cc1ccccc1` (centres unmarked) [Amphetamine], in series [1], the Site of action entry is “Intraneuronal”; the “Pharmacodynamics of effect” value is on record as “Rapid, very large”; the “Firing dependent effect on synaptic [DA]” value is reported as “No”. Besides, the Euphoriant/psychostimulant entry in series [2] is listed as “Yes”.
Consider `CC(C)CC(N)C1(c2ccc(Cl)cc2)CCC1` (centres unmarked) [BTS 54 505, 1-[1-(4-chlorophenyl)cyclobutyl]-3-methylbutylamine], for which, in series [3], the “release of [^3H]dopamine” value was “did not release”.
With `C[C@H](N)Cc1ccccc1` [d-Amphetamine, d-amphetamine], the “Percentage increase” value in series [3] (10^−5M) is reported as 138 ± 15 %; in series [3] (10^−7M) it was 56 ± 9 %. Also, the “release of [^3H]dopamine” value in series [3] is given as “dose-dependently released”. Besides, the figures for the “peak increase in extraneuronal dopamine concentration in the nucleus accumbens” value in series [4] (0.5 mg/kg ip) and in series [4] (1.5 mg/kg ip) were 242±89% and 603±319%, respectively. Also, the “time of maximum increase in extraneuronal dopamine” value in series [4] (both doses, 0.5 and 1.5 mg/kg ip) is reported as 40 min. Besides, in series [6], the “effect of tetrodotoxin in the dialysate on the drug-evoked increase in extraneuronal dopamine” value is on record as “not altered”.
On to `CC(NC(C)(C)C)C(=O)c1cccc(Cl)c1` (centres unmarked) [Bupropion, bupropion], for which the “release of [^3H]dopamine” value in series [3] is recorded as “did not release”. In addition, in series [1], the Site of action entry is recorded as “Extraneuronal”; the “Pharmacodynamics of effect” value was “Gradual, moderate,”; the “Firing dependent effect on synaptic [DA]” value is “Yes”.
`CNC(CC(C)C)C1(c2ccc(Cl)cc2)CCC1` (centres unmarked) [BTS 54 354, N-{1-[1-(4-chlorophenyl)cyclobutyl]-3-methylbutyl}-N-methylamine]: the “release of [^3H]dopamine” value in series [3] was “did not release”.
